Measured values published in article PMC7413254 (Nature Communications, 2020).
Where two headings read alike, the source gives them in different places.

What was measured:
non-expressing oocytes = assay: cells; type: cell-based, Xenopus laevis; details: Xenopus laevis, total [3H]CQ transport; for inhibition at 500 µM: [test solute] = 0.5 mM; for inhibition at 1000 µM: [test solute] = 1 mM; for inhibition at 2000 µM: [test solute] = 2 mM
Outline: (§1)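 Oocytes expressing PfCRT isoforms, or non-expressing controls, were incubated 1.5 h at 27.5 °C in ND96 buffer pH 5.5 (96 mM NaCl, 2 mM KCl, 1 mM MgCl2, 1.8 mM CaCl2, 10 mM MES, 10 mM Tris-base), measuring uptake from acidic medium into cytosol. Oocytes were washed ice-cold, SDS-lysed and counted by scintillation.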

PfCRT^3D7 = PfCRT^3D7 (Plasmodium falciparum, UniProt Q8IBZ9); assay: cell-based; type: cell-based; details: total [3H]CQ transport; for inhibition at 500 µM: [test solute] = 0.5 mM; for inhibition at 1000 µM: [test solute] = 1 mM; for inhibition at 2000 µM: [test solute] = 2 mM
Outline: as §1

PfCRT = assay: Test of solutes as potential co-substrates for influx of VF-6 via PfCRT into the oocyte; type: cell-based, Plasmodium falciparum; design: key: X: Compounds that have been tested as potential co-substrates but are not required for influx of VF-6 via PfCRT into the oocyte; details: X = tested
PfCRT^Dd2 = PfCRT^Dd2 (Plasmodium falciparum, UniProt Q9N623, A220S/I356T/K76T/M74I/N326S/N75E/Q271E/R371I); assay: [3H]CQ uptake into Xenopus oocytes, cis-inhibition by unlabelled solute; type: cell-based
Outline: as §1

PfCRT^Ecu1110 = PfCRT^Ecu1110 (Plasmodium falciparum, UniProt Q9N623, A220S/I356L/K76T/N326D); assay: as above; type: cell-based
Outline: as §1

[1] = Oocyte, mean ± SEM, SEM, read-out: Uptake of [3H]CQ (% PfCRTDd2 control), cis-inhibition, non-expressing oocytes
[2] = non-expressing oocytes, normalised to the oocyte type control, read-out: Uptake of [3H]CQ (% non-expressing oocyte control), cis-inhibition
[3] = PfCRT3D7 oocytes, normalised to the oocyte type control, read-out: Uptake of [3H]CQ (% PfCRT3D7 control), cis-inhibition
[4] = mean ± SEM, SEM, read-out: Uptake of [3H]CQ (% PfCRTDd2 control), cis-inhibition, PfCRT3D7
[5] = read-out: PfCRT-mediated [3H]CQ transport, cis-inhibition (% PfCRTDd2 control)
[6] = read-out: Uptake of [3H]CQ (% PfCRTDd2 control), cis-inhibition
[7] = read-out: Uptake of [3H]CQ (% PfCRTDd2 control), cis-inhibition, PfCRTDd2, SEM
[8] = read-out: [3H]CQ transport (% PfCRTDd2 control), cis-inhibition, PfCRTDd2, SEM
[9] = read-out: PfCRT-mediated [3H]CQ transport, cis-inhibition (% PfCRTEcu1110 control)
[10] = read-out: Uptake of [3H]CQ (% PfCRTDd2 control), cis-inhibition, PfCRTEcu1110, SEM
[11] = read-out: Uptake of [3H]CQ (% PfCRTEcu1110 control), cis-inhibition

Sequence of PfCRT^Ecu1110 (Q9N623 whole entry A220S/I356L/K76T/N326D): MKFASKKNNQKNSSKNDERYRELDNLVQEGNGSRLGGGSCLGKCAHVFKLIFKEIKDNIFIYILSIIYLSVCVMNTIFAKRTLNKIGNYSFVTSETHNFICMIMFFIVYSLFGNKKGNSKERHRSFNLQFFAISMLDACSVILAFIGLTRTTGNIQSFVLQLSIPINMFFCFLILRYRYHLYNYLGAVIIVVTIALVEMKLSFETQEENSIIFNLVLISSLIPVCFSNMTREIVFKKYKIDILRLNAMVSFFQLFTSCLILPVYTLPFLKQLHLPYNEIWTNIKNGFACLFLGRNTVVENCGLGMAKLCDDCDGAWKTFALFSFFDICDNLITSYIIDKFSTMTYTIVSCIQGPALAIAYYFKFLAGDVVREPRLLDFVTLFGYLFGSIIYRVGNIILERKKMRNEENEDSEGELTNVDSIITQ
Sequence of PfCRT^Dd2 (Q9N623 whole entry A220S/I356T/K76T/M74I/N326S/N75E/Q271E/R371I): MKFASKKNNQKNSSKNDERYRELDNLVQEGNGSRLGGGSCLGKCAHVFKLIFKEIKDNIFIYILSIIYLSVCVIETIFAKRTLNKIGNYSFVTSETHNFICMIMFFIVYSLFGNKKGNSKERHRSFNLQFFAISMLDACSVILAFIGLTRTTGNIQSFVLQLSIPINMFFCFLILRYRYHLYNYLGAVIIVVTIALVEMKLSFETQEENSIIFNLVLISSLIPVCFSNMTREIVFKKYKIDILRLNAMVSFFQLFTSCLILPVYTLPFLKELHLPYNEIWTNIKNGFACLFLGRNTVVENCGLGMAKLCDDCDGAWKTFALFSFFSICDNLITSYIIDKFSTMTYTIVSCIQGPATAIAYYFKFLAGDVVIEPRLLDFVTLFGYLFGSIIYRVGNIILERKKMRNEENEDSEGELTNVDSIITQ
Sequence of PfCRT^3D7 (Q8IBZ9 59-398): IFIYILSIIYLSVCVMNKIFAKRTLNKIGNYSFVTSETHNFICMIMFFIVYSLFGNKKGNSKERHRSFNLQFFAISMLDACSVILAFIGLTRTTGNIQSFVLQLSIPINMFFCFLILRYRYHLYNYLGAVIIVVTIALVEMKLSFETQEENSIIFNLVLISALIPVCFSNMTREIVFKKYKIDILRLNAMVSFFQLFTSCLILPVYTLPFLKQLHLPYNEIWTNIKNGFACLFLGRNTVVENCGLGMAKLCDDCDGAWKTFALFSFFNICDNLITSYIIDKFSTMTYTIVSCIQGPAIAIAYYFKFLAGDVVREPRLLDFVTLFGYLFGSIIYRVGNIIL

Work on `N[C@@H](Cc1c[nH]c2ccccc12)C(=O)O` [L-tryptophan] yielded an inhibition at 500 µM (non-expressing oocytes; [1]) of 2.1 ± 0.07%, an inhibition at 1000 µM (non-expressing oocytes; [1]) of 3.4 ± 0.1% and an inhibition at 2000 µM (non-expressing oocytes; [1]) of 3.6 ± 0.09%. For the same compound, the inhibition at 500 µM (non-expressing oocytes; [2]) was 97 ± 3.2%, the inhibition at 1000 µM (non-expressing oocytes; [2]) was 100 ± 3.6% and the inhibition at 2000 µM (non-expressing oocytes; [2]) was 100 ± 6.3%. The inhibition at 500 µM (PfCRT^3D7; [3]) was 100 ± 3.2%, the inhibition at 1000 µM (PfCRT^3D7; [3]) was 99 ± 4.6% and the inhibition at 2000 µM (PfCRT^3D7; [3]) was 100 ± 3.6%. For the same compound, the inhibition at 500 µM (PfCRT^3D7; [4]) was 2.7 ± 0.03%, the inhibition at 1000 µM (PfCRT^3D7; [4]) was 2.5 ± 0.04% and the inhibition at 2000 µM (PfCRT^3D7; [4]) was 2.7 ± 0.04%. The “Tested as potential co-substrate but not required for influx of VF-6 via PfCRT into the oocyte” value (PfCRT) was “X”, the inhibition at 500 µM (PfCRT^Dd2; [5]) was 94 ± 4.6% and the inhibition at 1000 µM (PfCRT^Dd2; [5]) was 95 ± 1.9%. The inhibition at 2000 µM (PfCRT^Dd2; [5]) was 95 ± 1.9%, the inhibition at 1000 µM (PfCRT^Dd2; [6]) was 97 ± 2.6% and the inhibition at 2000 µM (PfCRT^Dd2; [6]) was 97 ± 2.5%. It also gave an inhibition at 500 µM (PfCRT^Dd2; [7]) of 96 ± 2.1%, an inhibition at 1000 µM (PfCRT^Dd2; [7]) of 97 ± 2.6% and an inhibition at 2000 µM (PfCRT^Dd2; [7]) of 97 ± 2.5%. It also gave an inhibition at 1000 µM (PfCRT^Dd2; [8]) of 95 ± 1.9%, an inhibition at 2000 µM (PfCRT^Dd2; [8]) of 95 ± 1.9% and an inhibition at 500 µM (PfCRT^Ecu1110; [9]) of 96 ± 3.7%. The inhibition at 1000 µM (PfCRT^Ecu1110; [9]) was 95 ± 4.6%, the inhibition at 500 µM (PfCRT^Ecu1110; [10]) was 32 ± 1.6% and the inhibition at 1000 µM (PfCRT^Ecu1110; [10]) was 32 ± 0.6%. For the same compound, the inhibition at 2000 µM (PfCRT^Ecu1110; [10]) was 33 ± 1.4%, the inhibition at 500 µM (PfCRT^Ecu1110; [11]) was 98 ± 2.5% and the inhibition at 1000 µM (PfCRT^Ecu1110; [11]) was 97 ± 2.7%.
